Key:
Format in all cases: physicochemical
[1] = Concentration studies: stability of pyruvic acid solutions in water at higher concentrations
Experimental: Each of these commercial solutions were subjected to light for 6-weeks at temperatures ranging from about 22° C. to about 26° C. At each of the concentrations listed below, it was discovered that the pyruvic acid solutions were stable.

[2] = Shelf storage stability of [1-^13C]pyruvic acid in water, compared by ^1H and ^13C NMR spectra; conditions: 0.025M in water; for Shelf stability (NMR spectra unchanged): all conditions of Table 1
Experimental: Samples of isotopically labeled [1-^13C]pyruvic acid, having Formula VI and synthesized as discussed immediately below, were subjected to various conditions as depicted in Table 1, in order to establish the compound's shelf storage stability.
The resulting [1-^13C]pyruvic acid was tested as follows in Table 1:
^1H and ^13C NMR spectra of the distilled [1-^13C]pyruvic acid in water (0.025M) were acquired at the onset of the study and prior to exposing the samples to the various conditions specified in Table 1. ^1H and ^13C NMR spectra were again acquired for each of the samples after being exposed to the aforementioned conditions on a weekly basis for 12-weeks. The spectra acquired after exposure were compared visually and appeared to remain unchanged as compared with the spectra acquired prior to exposure, i.e. the spectra were as expected for [1-^13C]pyruvic acid in water. As such, it was concluded that each of the samples were shelf stable. Similarly, ^1H and ^13C NMR spectra acquired after 17-weeks of exposure remained unchanged as compared with the spectra acquired prior to exposure.

[3] = Titration of aqueous sample with sodium hydroxide, composition by HPLC (dimer formation); conditions: pH of about 6.2 after titration with sodium hydroxide
Source text: The molarity of sample 4 was confirmed to be 0.025M by titrating the aqueous sample with sodium hydroxide. […] It was also discovered that at pHs greater than 5.8, such as at a pH of about 6.2, some of the pyruvic acid was present in the form of a dimerized sodium salt. […] As such, it was discovered that to minimize dimmer formation, it may be necessary to control the pH of [1-^13C]pyruvate solutions, and in particular, any aqueous solution should be maintained at a pH of about 6.5 or less, more preferably 6.0 or less, and even more preferably 5.8 or less.

[4] = Sample 3: Room temperature (about 22° C. to about 26° C.), Dark
[5] = Sample 4: Room temperature (about 22° C. to about 26° C.), Light

Stability of solutions in water ([1]; each of the concentrations of Table 2, light, 6-weeks, about 22° C. to about 26° C.) | Shelf stability, 12 weeks ([2]; Sample 1: −10° C., Dark) | Shelf stability, 17 weeks ([2]; Sample 1: −10° C., Dark) | Shelf stability, 12 weeks ([2]; Sample 2: 4° C., Dark) | Shelf stability, 17 weeks ([2]; Sample 2: 4° C., Dark) | Shelf stability, 12 weeks [2, 4] | Shelf stability, 17 weeks [2, 4] | Shelf stability, 12 weeks [2, 5] | Shelf stability, 17 weeks [2, 5] | Shelf stability (NMR spectra unchanged) ([2]; 17-weeks) | Shelf stability (NMR spectra unchanged) ([2]; weekly for 12-weeks) | Stability of solutions in water at higher concentrations (believed) ([1]; at least the concentrations of Table 2 in water, inferred from commercial pyruvic acid) | Content of dimerized [1-^13C]pyruvate salt by HPLC [3] | Content of sodium [1-^13C]pyruvate by HPLC [3] [%] | Share of the pyruvic acid accounted for by dimerized salt [3] | Structure (SMILES)
stable | – | – | – | – | – | – | – | – | – | – | – | – | – | – | CC(=O)C(=O)O [Pyruvic acid, 2-oxopropanoic acid, reference compound]
– | Stable | Stable | Stable | Stable | Stable | Stable | Stable | Stable | shelf stable | shelf stable | stable | 2-4% | 89 | 4-6% | CC(=O)[13C](=O)O [[1-^13C]pyruvic acid]

From patent US20080177115A1, “Isotopically labeled alpha-keto acids and esters” (Spectra Gases, Inc., priority 2006, published 2008)
